{"source": "patent US8030335B2", "about": "“Use of liver X receptor agonists” (Laboratoires Fournier S.A., priority 2005, dated 2011)", "key": {"[1]": {"test_system": "NOD mice", "assay": "Regeneration of beta cells in NOD mice (pancreatic histology)", "assay_type": "in vivo, mouse", "conditions": "NOD mice of 4 weeks old, 50 mg/kg for 4 weeks (5 days/7)", "excerpt": "NOD (non-obese diabetes) mice is an experimental model of spontaneous resembling human Type I (insulin-dependent) diabetes, which results from the progressive islet invasion and beta cells destruction by autoreactive T cells. This spontaneous diabetes model offers a unique opportunity of studying the autoreactive T cells involved in the process of beta cell destruction and of settling preventive strategies before clinical onset of the disease. Non fasted mice were killed two days after the last administration of compounds. Pancreatic glands were excised and processed for conventional histological studies after fixation in Bouin's alcoholic solution. Five μm sections were stained with haematoxylin-eosin as described previously by Thivolet C. H. et al., 1991, Diabetologia, 34, 314-319. NOD mice of 4 weeks old have been treated for 4 weeks (5 days/7) with vehicle or GW3965 at 50 mg/kg. Pancreatic histological studies have been carried out as described above."}, "[2]": {"test_system": "isolated pancreatic islets", "assay": "Glucose-stimulated insulin secretion in pancreatic islets isolated from treated ZDF rats", "assay_type": "in vivo, rat", "conditions": "islets of ZDF rats treated 10 mg/kg oral for 3 weeks", "method": "Male ZDF fa/fa and ZDF fa+ rats were obtained from Genetic Models (Indianapolis, Ind.), at the age of 6 weeks and used in the experiments at 12 weeks of age, after 3 weeks of oral treatment with vehicle or GW3965 (10 mg/kg). Compounds were given once daily (at 17 h) via oral gavage. At the time of their use, the ZDF fa/fa rats weighed 310-350 g, whereas the age-matched ZDF fa+ rats weighed 245-285 g. ZDF fa+ and ZDF fa/fa animals had free access to diabetogenic chow (Purina 5008). Animals were housed 5 per cage in a temperature and humidity-controlled room with a 12/12-h light-dark cycle. Blood samples were taken 16 h after compound administration via the tail vein and measured on a Konelab 300 (Labsystem) clinical chemistry analyzer. Rat pancreatic islets were prepared by collagenase digestion and density gradient purification. The enzyme collagenase type XI (Sigma Chemical, St. Louis, Mo.) was used for digestion of the pancreas. After an overnight fast, animals were deeply anesthetized and killed. Then, the pancreatic duct was cannulated, and 20 ml of the digestion solution at 37° C. […] Insulin content was measured in the same islets after an overnight alcohol-acid extraction (Ethanol 75%+HCl 0.15 N). Insulin concentrations in the different media were determined by rat insulin ELISA test (Insulin Rat Elite plus, MERCODIA)."}, "[3]": {"test_system": "pancreatic sections", "assay": "Apoptosis by TUNEL staining on pancreatic sections", "assay_type": "in vivo, rat", "conditions": "8 weeks-old ZDF rats, 10 mg/kg for 4 weeks, vehicle 4.55±1.29%, p<0.05", "method": "Islet cell apoptosis was determined by transferase-mediated dUTP nick-end labeling (TUNEL) staining. Cell death was identified by 3′ in situ end labeling of fragmented DNA with biotinylated deoxyuridine-triphosphate. Each pancreatic piece was cut throughout its length into 5 μm thick sections, which were collected on gelatin-coated slides. Four sections at regular intervals were picked in both head and tail pieces. After digestion with Proteinase K (2 μg/ml; Sigma), sections were consecutively washed in TdT buffer (0.5 mol/l cacodylate [pH 6.8], 1 mmol/l cobalt chloride, 0.15 mol/l NaCl) and then incubated at 37° C. with TdT (25U; Boehringer-Mannheim, Mannheim, Germany) and biotinylated dUTP (1 nmol/μl). After washing in TB buffer (300 mmol/l NaCl, 30 mmol/l sodium citrate) to terminate the reaction, incorporation of biotinylated dUTP was detected by a modification of the avidin-biotin complex method. Horseradish peroxidise-conjugated streptavidin-biotin complex was applied (Vector Laboratories). The sections were then developed using DAB as chromogen and lightly counterstained with hematoxylin and mounted in dePex (BDH Laboratory, Poole, England).\nApoptosis have also been estimated using the TUNEL staining method on pancreatic sections of 5 animals of 8 weeks-old ZDF rats treated with GW3965 at 10 mg/kg for 4 weeks."}}, "data": [{"smiles": "O=C(O)Cc1cccc(OCCCN(Cc2cccc(C(F)(F)F)c2Cl)CC(c2ccccc2)c2ccccc2)c1", "note": "[GW3965]", "values": [{"measurement": "regeneration of beta cells (formation of new islets)", "setting": "[1]", "value": "formation of new islets"}, {"measurement": "increase of insulin secretion vs vehicle-treated ZDF rat islets", "setting": "[2]; 3.3 mmol/l glucose", "value": 133.8, "unit": "%"}, {"measurement": "increase of insulin secretion vs vehicle-treated ZDF rat islets", "setting": "[2]; 16.7 mmol/l glucose", "value": 74.5, "unit": "%"}, {"measurement": "% of apoptosis by TUNEL staining", "setting": "[3]", "value": "1.41±0.96", "unit": "%"}]}]}
